Reference: patent US20150004175A1, “Compositions and Methods for Reducing CTL Exhaustion” (priority 2011, published 2015)

Legend:
LCMV-CL13 [1] = system: LCMV-CL13; parameters: species or system mice (C57BL/6); settings: mouse, in vivo
LCMV-CL13 [2] = system: LCMV-CL13; parameters: species or system mice (C57BL/6); settings: mouse, in vivo; remark: listed apart in the source
P14+ CD8 T cells = format: cell-based, mice

Compound | number of virus-specific CD8+ T cells (LCMV-CL13 [1]) | INFγ, TNFα, and IL-2 production by CD8+ T cells stimulated with LCMV peptides GP276, GP33 and NP396 (LCMV-CL13 [2]) | inhibition of TNF-α and IL-2 production (P14+ CD8 T cells) | production of IFN-γ, TNF-α and IL-2 (all three cytokines) (P14+ CD8 T cells) | effect on cytokine production (P14+ CD8 T cells; EP2/4 DKO P14+ CD8 T cells, 40 μM PGE2)
COc1ccc2cc(OCC3(C(=O)O)CN(C(=O)c4ccc(F)cc4)C3)ccc2c1 [PF-04418948] | increased | increased |  |  | 
CC(C)Oc1ccc2c(=O)c3cc(C(=O)O)ccc3oc2c1 [AH6809] | increased | increased |  |  | 
CCc1nc2c(C)nc(C)cc2n1-c1ccc(CCNC(=O)NS(=O)(=O)c2ccc(C)cc2)cc1 [CJ-23423] | increased | increased |  |  | 
CCCCC[C@H](O)/C=C/[C@H]1[C@H](O)CC(=O)[C@@H]1C/C=C\CCCC(=O)O [PGE2] |  |  | 75-80% | suppressed | very little effect
CCCCc1nn(-c2ccccc2C(F)(F)F)c(=O)n1Cc1ccc(-c2ccccc2S(=O)(=O)NC(=O)c2sccc2C)cc1 [L161,982] | increased | increased |  |  | 
